The record followed here is PMC3685283 (Molecular cancer research : MCR, 2012).

The target in experiment [1] is Smoothened (SMO) (Homo sapiens, UniProt Q99835). Description: BODIPY-cyclopamine competition binding in SMO-transfected HeLa cells. The class given is cell-based.
For experiment [2], the target named is Smoothened (SMO) (Mus musculus, UniProt P56726). The experiment is described as above. The class given is cell-based.
Smoothened (SMO) (Mus musculus, UniProt P56726), sequence (P56726 33-793): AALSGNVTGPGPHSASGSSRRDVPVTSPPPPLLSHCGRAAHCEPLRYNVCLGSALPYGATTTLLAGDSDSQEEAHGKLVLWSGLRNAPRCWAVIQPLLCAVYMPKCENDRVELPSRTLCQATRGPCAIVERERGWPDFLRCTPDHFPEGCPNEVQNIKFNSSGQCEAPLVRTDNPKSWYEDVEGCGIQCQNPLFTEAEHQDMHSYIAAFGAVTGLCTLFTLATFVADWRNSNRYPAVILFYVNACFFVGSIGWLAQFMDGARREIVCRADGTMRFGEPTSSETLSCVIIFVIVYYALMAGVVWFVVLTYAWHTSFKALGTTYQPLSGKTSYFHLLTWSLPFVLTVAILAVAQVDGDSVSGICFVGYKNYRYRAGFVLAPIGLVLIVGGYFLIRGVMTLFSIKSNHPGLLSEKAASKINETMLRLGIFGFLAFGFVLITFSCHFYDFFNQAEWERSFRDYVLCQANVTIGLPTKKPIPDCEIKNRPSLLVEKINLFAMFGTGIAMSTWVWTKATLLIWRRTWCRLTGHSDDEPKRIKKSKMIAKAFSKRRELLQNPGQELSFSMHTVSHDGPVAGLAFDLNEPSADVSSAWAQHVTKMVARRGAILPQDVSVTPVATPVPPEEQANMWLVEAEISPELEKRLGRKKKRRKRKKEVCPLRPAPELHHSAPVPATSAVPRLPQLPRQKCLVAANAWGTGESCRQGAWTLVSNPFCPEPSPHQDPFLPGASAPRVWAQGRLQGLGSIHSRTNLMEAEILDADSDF

Smoothened (SMO) (Homo sapiens, UniProt Q99835), sequence (Q99835 28-787): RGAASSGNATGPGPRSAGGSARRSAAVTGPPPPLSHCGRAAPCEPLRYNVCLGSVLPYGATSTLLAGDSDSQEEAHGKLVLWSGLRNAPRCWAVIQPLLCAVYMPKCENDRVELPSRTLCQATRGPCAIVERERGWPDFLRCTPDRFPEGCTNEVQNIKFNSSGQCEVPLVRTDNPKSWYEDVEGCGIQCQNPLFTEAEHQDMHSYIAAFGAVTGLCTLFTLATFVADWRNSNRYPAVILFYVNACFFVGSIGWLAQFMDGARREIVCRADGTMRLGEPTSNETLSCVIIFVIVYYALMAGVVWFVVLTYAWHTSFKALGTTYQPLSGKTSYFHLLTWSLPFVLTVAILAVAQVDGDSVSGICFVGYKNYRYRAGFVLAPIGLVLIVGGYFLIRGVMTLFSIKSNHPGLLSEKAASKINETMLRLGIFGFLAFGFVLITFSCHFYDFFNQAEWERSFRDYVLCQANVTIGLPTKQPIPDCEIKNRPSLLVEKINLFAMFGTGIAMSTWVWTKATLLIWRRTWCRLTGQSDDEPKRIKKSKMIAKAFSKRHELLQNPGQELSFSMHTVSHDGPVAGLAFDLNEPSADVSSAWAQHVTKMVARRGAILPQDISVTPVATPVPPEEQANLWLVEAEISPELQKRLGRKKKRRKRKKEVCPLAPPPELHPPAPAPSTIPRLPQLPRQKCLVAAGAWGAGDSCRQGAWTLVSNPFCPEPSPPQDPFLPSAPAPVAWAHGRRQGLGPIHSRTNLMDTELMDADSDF

By Kd is commonly meant the free concentration of one partner at which half of the binding sites on the other are occupied at equilibrium, for simple one-to-one binding. Turning to `CC1=C2C[C@H]3[C@@H](CC=C4CC(=O)CC[C@@]43C)[C@@H]2CC[C@]12O[C@@H]1C[C@H](C)CN(CCNC(=O)CCCCCNC(=O)CCc3ccccc3)[C@H]1[C@H]2C` [KAAD-cyclopamine], the Kd was 0.8 nM at Smoothened (SMO) [1] and 2 nM on Smoothened (SMO) [2].
